Consider 15 molecules from PMC4519236 (Bioorganic & medicinal chemistry, 2013).

Entries after “also recorded” stand apart in the source; their conditions may differ.

Test [1] has as its target α4β2* nAChR (Homo sapiens, UniProt P17787+P43681). As to the kind of experiment: Electrophysiology, α4β2* nAChR expressed in Xenopus oocytes. The class given is cell-based. Conditions: 1 or 10 μM; co-applied at 1 μM with ACh; relative to ACh control.
Another test deals with α7* nAChR (Rattus norvegicus, UniProt Q05941). As to the kind of experiment: Radioligand binding assay, α7* nAChR.
Sequence of α7* nAChR (Q05941 23-502): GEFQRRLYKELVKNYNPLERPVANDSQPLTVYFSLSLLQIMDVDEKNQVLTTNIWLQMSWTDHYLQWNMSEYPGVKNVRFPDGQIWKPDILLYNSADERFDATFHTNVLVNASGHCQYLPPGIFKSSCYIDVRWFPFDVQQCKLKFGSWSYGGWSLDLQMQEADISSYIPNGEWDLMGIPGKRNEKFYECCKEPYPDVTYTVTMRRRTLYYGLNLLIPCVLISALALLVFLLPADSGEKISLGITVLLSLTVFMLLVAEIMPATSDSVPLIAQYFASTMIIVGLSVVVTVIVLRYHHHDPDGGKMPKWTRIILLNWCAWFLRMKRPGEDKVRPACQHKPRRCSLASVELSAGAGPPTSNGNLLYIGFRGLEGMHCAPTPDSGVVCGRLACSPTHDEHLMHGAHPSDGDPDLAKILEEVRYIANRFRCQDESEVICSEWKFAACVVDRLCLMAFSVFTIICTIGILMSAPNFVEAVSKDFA
The target of test [2] is α4β2* nAChR (Rattus norvegicus, UniProt P09483+P12390). As to the kind of experiment: Radioligand binding assay, α4β2* nAChR.
Sequence of α4β2* nAChR (Rattus norvegicus, UniProt P09483+P12390) (P09483 31-630): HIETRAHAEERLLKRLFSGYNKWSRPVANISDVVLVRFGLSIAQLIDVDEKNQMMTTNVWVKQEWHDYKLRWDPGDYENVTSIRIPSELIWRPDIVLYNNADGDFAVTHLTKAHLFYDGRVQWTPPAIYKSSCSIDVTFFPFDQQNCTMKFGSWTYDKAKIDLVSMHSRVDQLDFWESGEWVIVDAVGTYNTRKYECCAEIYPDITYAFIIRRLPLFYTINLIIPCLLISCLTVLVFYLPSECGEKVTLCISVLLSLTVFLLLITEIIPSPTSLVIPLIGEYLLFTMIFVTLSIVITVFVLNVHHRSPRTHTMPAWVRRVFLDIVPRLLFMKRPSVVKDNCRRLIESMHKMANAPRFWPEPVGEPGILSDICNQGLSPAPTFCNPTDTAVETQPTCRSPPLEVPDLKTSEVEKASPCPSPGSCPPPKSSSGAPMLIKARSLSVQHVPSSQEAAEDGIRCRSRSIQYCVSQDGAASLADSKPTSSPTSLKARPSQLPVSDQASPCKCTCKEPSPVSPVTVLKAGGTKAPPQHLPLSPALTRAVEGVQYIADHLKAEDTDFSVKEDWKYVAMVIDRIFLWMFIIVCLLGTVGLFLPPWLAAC
Sequence of α4β2* nAChR (Rattus norvegicus, UniProt P09483+P12390) (P12390 25-500): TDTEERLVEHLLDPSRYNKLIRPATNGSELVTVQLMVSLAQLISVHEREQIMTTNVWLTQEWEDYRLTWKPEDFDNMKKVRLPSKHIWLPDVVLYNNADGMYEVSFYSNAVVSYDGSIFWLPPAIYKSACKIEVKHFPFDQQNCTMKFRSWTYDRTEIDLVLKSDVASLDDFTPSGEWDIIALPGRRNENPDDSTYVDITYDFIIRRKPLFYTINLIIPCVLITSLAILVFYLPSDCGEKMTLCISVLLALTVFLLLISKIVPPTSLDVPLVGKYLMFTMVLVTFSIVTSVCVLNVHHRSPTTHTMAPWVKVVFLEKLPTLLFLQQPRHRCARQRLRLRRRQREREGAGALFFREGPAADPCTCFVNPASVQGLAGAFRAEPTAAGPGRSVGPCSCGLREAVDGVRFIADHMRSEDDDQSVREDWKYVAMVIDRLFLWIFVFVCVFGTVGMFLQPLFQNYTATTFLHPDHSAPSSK
The target of test [3] is α3β4* nAChR (Homo sapiens, UniProt P30926+P32297). As to the kind of experiment: Electrophysiology, α3β4* nAChR expressed in Xenopus oocytes. Type of test: cell-based. As to conditions: 1 or 10 μM; co-applied at 1 μM with ACh; relative to ACh control.
Sequence of α3β4* nAChR (Homo sapiens, UniProt P30926+P32297) (P32297 32-505): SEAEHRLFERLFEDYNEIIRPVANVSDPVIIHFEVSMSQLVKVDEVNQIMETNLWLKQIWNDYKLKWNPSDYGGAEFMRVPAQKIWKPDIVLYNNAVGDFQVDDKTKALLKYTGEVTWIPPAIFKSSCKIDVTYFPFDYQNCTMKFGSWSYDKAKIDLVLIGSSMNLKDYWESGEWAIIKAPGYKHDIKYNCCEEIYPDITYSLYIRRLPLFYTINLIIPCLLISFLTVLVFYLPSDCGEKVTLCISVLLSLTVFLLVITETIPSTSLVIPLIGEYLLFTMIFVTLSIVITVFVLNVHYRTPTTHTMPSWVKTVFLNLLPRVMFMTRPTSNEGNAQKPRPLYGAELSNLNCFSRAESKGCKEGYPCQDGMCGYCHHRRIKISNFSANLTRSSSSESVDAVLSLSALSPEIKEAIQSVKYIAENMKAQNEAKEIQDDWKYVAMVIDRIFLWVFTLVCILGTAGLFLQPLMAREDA
Sequence of α3β4* nAChR (Homo sapiens, UniProt P30926+P32297) (P30926 22-498): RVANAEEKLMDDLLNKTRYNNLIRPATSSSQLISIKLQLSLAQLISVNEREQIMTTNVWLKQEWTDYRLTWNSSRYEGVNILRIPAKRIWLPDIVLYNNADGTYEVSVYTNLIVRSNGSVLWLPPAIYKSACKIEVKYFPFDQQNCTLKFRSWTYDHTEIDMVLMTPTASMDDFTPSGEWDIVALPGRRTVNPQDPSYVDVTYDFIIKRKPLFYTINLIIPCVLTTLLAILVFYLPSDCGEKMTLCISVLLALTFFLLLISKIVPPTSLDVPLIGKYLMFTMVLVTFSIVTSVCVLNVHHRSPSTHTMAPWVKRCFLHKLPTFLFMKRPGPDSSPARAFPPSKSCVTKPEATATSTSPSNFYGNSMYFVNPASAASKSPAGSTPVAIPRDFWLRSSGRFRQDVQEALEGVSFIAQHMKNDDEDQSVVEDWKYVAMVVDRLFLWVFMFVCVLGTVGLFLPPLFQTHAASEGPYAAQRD
The target in a further test is muscle subtype nAChR (Homo sapiens, UniProt P02708+Q07001). As to the kind of experiment: Electrophysiology, muscle subtype nAChR expressed in Xenopus oocytes. Type of test: cell-based. Conditions: 1 or 10 μM; co-applied at 1 μM with ACh; relative to ACh control.
Sequence of muscle subtype nAChR (P02708 21-457): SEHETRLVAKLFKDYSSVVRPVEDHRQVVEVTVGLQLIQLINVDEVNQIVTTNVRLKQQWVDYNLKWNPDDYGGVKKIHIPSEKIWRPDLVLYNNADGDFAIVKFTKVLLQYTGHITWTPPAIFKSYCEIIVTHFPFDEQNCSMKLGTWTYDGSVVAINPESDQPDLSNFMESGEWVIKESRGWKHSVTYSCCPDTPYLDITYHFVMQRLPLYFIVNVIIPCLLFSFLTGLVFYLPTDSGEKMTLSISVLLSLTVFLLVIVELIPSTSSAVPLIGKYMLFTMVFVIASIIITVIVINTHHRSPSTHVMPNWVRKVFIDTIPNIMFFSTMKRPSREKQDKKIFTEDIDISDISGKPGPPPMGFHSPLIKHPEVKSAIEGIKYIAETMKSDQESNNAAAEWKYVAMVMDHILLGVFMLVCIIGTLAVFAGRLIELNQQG
Sequence of muscle subtype nAChR (P11230 24-501 partner): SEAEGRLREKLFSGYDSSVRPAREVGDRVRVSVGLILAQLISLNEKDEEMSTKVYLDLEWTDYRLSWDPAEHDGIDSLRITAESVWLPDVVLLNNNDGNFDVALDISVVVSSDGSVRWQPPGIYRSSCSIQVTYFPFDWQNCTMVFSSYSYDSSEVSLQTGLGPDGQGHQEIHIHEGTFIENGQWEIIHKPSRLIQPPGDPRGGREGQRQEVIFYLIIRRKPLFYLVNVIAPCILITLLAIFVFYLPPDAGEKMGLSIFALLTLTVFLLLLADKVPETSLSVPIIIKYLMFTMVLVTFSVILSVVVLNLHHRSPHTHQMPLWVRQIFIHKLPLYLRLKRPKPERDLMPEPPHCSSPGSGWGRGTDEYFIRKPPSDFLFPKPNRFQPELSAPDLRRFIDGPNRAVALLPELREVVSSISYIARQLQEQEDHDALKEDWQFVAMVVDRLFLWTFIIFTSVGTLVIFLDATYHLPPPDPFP
Sequence of muscle subtype nAChR (Q07001 22-517): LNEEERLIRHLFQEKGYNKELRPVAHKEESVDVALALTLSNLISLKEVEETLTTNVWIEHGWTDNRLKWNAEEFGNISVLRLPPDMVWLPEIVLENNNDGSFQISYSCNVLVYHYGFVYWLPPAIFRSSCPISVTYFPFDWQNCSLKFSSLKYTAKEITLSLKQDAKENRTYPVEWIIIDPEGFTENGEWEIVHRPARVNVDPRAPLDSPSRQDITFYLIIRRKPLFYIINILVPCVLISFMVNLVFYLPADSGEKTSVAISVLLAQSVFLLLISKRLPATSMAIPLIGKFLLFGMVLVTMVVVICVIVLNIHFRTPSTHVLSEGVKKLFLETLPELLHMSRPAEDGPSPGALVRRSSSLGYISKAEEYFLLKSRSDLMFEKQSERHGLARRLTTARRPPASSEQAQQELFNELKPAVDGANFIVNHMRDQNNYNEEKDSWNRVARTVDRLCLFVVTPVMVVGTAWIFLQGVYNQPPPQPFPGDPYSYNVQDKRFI
Test [4] concerns α3β4* nAChR. As to the kind of experiment: Radioligand binding assay, α3β4* nAChR.
A further test has as its target (α1)2β1γδ nAChR (Tetronarce californica, UniProt P02710+P02714+P02718). As to the kind of experiment: Radioligand binding assay, muscle type.
A further test relates to mouse model. As to conditions: ref [26]; cited from earlier work.
The mark [5] stands for this setting: relative to vinyl spacer analog 26.

Sequence of α4β2* nAChR (Homo sapiens, UniProt P17787+P43681) (P43681 29-627 limits assumed): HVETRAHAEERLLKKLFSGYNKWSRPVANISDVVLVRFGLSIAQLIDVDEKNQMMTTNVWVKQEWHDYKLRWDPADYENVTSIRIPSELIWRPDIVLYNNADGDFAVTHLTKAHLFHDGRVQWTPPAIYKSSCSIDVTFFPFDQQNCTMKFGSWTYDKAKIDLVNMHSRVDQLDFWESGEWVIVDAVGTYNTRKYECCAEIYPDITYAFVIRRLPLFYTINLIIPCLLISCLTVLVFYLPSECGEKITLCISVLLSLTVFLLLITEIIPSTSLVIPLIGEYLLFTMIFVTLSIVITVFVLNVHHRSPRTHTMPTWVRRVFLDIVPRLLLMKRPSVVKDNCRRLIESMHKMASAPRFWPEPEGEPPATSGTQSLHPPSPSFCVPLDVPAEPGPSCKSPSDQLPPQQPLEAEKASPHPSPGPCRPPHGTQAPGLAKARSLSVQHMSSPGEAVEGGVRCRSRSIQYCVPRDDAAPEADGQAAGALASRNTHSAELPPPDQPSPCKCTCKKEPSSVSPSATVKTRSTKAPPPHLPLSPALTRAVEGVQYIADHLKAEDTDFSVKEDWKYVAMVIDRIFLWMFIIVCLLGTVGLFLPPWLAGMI
Sequence of α4β2* nAChR (Homo sapiens, UniProt P17787+P43681) (P17787 26-502): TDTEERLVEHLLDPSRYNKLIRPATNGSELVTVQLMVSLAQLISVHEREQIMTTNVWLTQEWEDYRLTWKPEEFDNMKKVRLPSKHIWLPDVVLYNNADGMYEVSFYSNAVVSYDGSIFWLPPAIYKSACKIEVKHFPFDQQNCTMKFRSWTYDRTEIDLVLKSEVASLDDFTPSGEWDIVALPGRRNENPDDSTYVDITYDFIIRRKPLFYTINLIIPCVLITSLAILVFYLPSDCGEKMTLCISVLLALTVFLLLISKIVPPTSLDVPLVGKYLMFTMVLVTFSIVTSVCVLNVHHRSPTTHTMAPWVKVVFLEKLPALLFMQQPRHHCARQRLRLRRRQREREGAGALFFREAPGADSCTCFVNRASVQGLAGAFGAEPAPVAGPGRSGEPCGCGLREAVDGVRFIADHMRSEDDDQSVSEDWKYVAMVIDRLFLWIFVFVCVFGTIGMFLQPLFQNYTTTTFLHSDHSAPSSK

For `COc1ccc(C#CC(=O)N2C[C@@H]3CNC[C@@H](C3)C2)cc1Cl` [Compound 47, 1-((1R,5S)-3,7-diazabicyclo[3.3.1]nonan-3-yl)-3-(3-chloro-4-methoxyphenyl)prop-2-yn-1-one], the “functional effect at α4β2*” value at α4β2* nAChR [1] was “strongest antagonistic effects”.

Consider `O=C(CCc1ccccc1)N1C[C@@H]2CNC[C@@H](C2)C1` [Compound 32, 1-((1R,5S)-3,7-diazabicyclo[3.3.1]nonan-3-yl)-3-phenylpropan-1-one], for which the “affinity for α7* nAChR, in words” value on α7* nAChR is “no affinity”.

Regarding `O=C(C#Cc1ccc2c(c1)OCO2)N1C[C@@H]2CNC[C@@H](C2)C1` [Compound 50, 1-((1R,5S)-3,7-diazabicyclo[3.3.1]nonan-3-yl)-3-(benzo[d][1,3]dioxol-5-yl)prop-2-yn-1-one], the “functional effect at α4β2*” value on α4β2* nAChR [1] is reported as “strongest antagonistic effects”. In addition, the “higher affinity for α4β2*” value on α4β2* nAChR [2] (setting [5]) was about 10 fold.

On to `O=c1c(-c2ccccc2)ccc2n1C[C@@H]1CNC[C@H]2C1` [Compound 4, 9-phenyl-1,2,3,4,5,6-hexahydro-1,5-methano-pyridino[1,2-a]diazocin-8-one], for which the “α4β2* affinity lower than cytisine 1” value at α4β2* nAChR [2] (relative to cytisine 1) is reported as “about 1000 times”.

Turning to `O=C(c1ccc(-n2ccnc2)cc1)N1C[C@@H]2CNC[C@@H](C2)C1` [Compound 54, (4-(1H-imidazol-1-yl)phenyl)((1R,5S)-3,7-diazabicyclo[3.3.1]nonan-3-yl)methanone], at α4β2* nAChR [1], the “functional effect at α4β2*” value is “strongest antagonistic effects”.

Take `O=C(c1ccc(-c2ccncc2)cc1)N1C[C@@H]2CNC[C@@H](C2)C1` [Compound 53, (1R,5S)-3,7-diazabicyclo[3.3.1]nonan-3-yl(4-(pyridin-4-yl)phenyl)methanone]: the “functional effect at α4β2*” value on α4β2* nAChR [1] is “strongest antagonistic effects”.

For the molecule `O=C([C@@H]1C[C@H]1c1ccccc1)N1C[C@@H]2CNC[C@@H](C2)C1` [Compound 15, (1R,5S)-3,7-diazabicyclo[3.3.1]nonan-3-yl((1R,2R)-2-phenylcyclopropyl)methanone], the “functional effect at α3β4*” value on α3β4* nAChR [3] is “agonist; also recorded: most potent agonist”. On α4β2* nAChR [1], the “functional effect at α4β2*” value was “strongest antagonistic effects”. Moreover, the Ki on α4β2* nAChR [2] is about 1 nM.

Consider `O=C(c1csc(-c2ccncc2)n1)N1C[C@@H]2CNC[C@@H](C2)C1` [Compound 55, (1R,5S)-3,7-diazabicyclo[3.3.1]nonan-3-yl(2-(pyridine-4-yl)thiazol-4-yl)methanone], for which, at α4β2* nAChR [2], the “affinity for α4β2* / nAChRs tested, in words” value is “did not show any affinity”.

Take `O=C(C#Cc1ccccc1)N1C[C@@H]2CNC[C@@H](C2)C1` [Compound 42]: on α4β2* nAChR [2] (relative to analogs 32 and 16), the “higher affinity for α4β2*” value came out at 5 times.

On to `O=C(Cc1ccccc1)N1C[C@@H]2CNC[C@@H](C2)C1` [Compound 30, 1-((1R,5S)-3,7-diazabicyclo[3.3.1]nonan-3-yl)-2-phenylethanone], for which the “increase of α4β2* affinity” value at α4β2* nAChR [2] (relative to compound 29) is on record as “about 8 fold”.

As to `COc1ccc(C#CC(=O)N2C[C@@H]3CNC[C@@H](C3)C2)cc1OC` [Compound 46, 1-((1R,5S)-3,7-diazabicyclo[3.3.1]nonan-3-yl)-3-(3,4-dimethoxyphenyl)prop-2-yn-1-one], the “functional effect at α4β2*” value on α4β2* nAChR [1] is listed as “strongest antagonistic effects”. Further, the “higher affinity for α4β2*” value at α4β2* nAChR [2] (setting [5]) is listed as about 10 fold. In addition, the “functional effect at muscle subtype” value on muscle subtype nAChR is listed as “some antagonistic effect”.

Take `O=C(/C=C/c1ccccc1)N1C[C@@H]2CNC[C@@H](C2)C1` [Compound 16, (E)-1-((1R,5S)-3,7-diazabicyclo[3.3.1]nonan-3-yl)-3-phenylprop-2-en-1-one]: the “affinity for α3β4* nAChR, in words” value in the test with α3β4* nAChR [4] is listed as “lacked affinity”. Also, the “affinity for α7* nAChR, in words” value on α7* nAChR is reported as “lacked affinity”. On (α1)2β1γδ nAChR, the “affinity for (α1)2β1γδ nAChR, in words” value was “lacked affinity”.

Turning to `O=C(c1ccc(-c2cccnc2)cc1)N1C[C@@H]2CNC[C@@H](C2)C1` [Compound 52, (1R,5S)-3,7-diazabicyclo[3.3.1]nonan-3-yl(4-(pyridin-3-yl)phenyl)methanone], the “functional effect at α4β2*” value on α4β2* nAChR [1] is reported as “strongest antagonistic effects”.

Regarding `O=C(Cc1c(F)c(F)c(F)c(F)c1F)N1C[C@@H]2CNC[C@@H](C2)C1` [Compound 34, 1-((1R,5S)-3,7-diazabicyclo[3.3.1]nonan-3-yl)-2-(2,3,4,5,6-pentafluorophenyl)ethanone], the “affinity for α4β2* / nAChRs tested, in words” value at α4β2* nAChR [2] was “failed to interact”.

Regarding `CS(=O)(=O)c1ccc(CC(=O)N2C[C@@H]3CNC[C@@H](C3)C2)cc1` [Compound 35, 1-((1R,5S)-3,7-diazabicyclo[3.3.1]nonan-3-yl)-2-(4-(methylsulfonyl)phenyl)ethanone], the “functional effect at α4β2*” value at α4β2* nAChR [1] is given as “strongest antagonistic effects”. Also, the “in vivo activity in a mouse model” value with mouse model is listed as “antidepressive effect”.

The Ki is a dissociation constant, usually derived from enzyme kinetics or from competition with a known ligand. A high value points to lower affinity.
